From patent publication US11053204B2, “Pyrimidinyloxy benzene derivatives as herbicides” (FMC Corporation, priority 2015, dated 2021)

Legend:
Type in all cases: in vivo
[1] = system: ragweed (common ragweed, Ambrosia elatior); test: Test A preemergence, visual injury rating; settings: Ambrosia artemisiifolia, pre-emergence, 240 h, 0 to 100 scale (0 no effect, 100 complete control), read-out: Ragweed plant response rating
Outline: (§1)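 Scoring: eye-based comparison with untreated controls, 0 for no effect through 100 for complete control, at about day 10. Treatments: directed soil spray preemergence; foliar spray postemergence on 2–10 cm plants at the one- to two-leaf stage. Medium: loam soil with sand.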

[2] = system: kochia (Kochia scoparia); test: Test A preemergence, visual injury rating; settings: Bassia scoparia, pre-emergence, 240 h, 0 to 100 scale (0 no effect, 100 complete control), read-out: Kochia plant response rating
Outline: as §1

[3] = system: giant foxtail (Setaria faberii); test: Test A preemergence, visual injury rating; settings: Setaria faberi, pre-emergence, 240 h, 0 to 100 scale (0 no effect, 100 complete control), read-out: Foxtail, Giant plant response rating
Outline: as §1

[4] = system: Italian ryegrass (Lolium multiflorum); test: Test A preemergence, visual injury rating; settings: Lolium multiflorum, pre-emergence, 240 h, 0 to 100 scale (0 no effect, 100 complete control), read-out: Ryegrass, Italian plant response rating
Outline: as §1

[5] = system: pigweed (Amaranthus retroflexus); test: Test A preemergence, visual injury rating; settings: Amaranthus retroflexus, pre-emergence, 240 h, 0 to 100 scale (0 no effect, 100 complete control), read-out: Pigweed plant response rating
Outline: as §1

[6] = system: barnyardgrass (Echinochloa crus-galli); test: Test A preemergence, visual injury rating; settings: Echinochloa crus-galli, pre-emergence, 240 h, 0 to 100 scale (0 no effect, 100 complete control), read-out: Barnyardgrass plant response rating
Outline: as §1

[7] = system: corn (Zea mays); test: Test C postemergence, plant response rating; settings: Zea mays, post-emergence
Excerpt: (§2) Seeds of plant species selected from blackgrass (Alopecurus myosuroides), ryegrass, Italian (Italian ryegrass, Lolium multiflorum), wheat (winter wheat, Triticum aestivum), galium (catchweed bedstraw, Galium aparine), corn (Zea mays), crabgrass, large (large crabgrass, Digitaria sanguinalis), foxtail, giant (giant foxtail, Setaria faberii), johnsongrass (Sorghum halepense), lambsquarters (Chenopodium album), morningglory (Ipomoea coccinea), nutsedge, yellow (yellow nutsedge, Cyperus esculentus), pigweed (Amaranthus retroflexus), ragweed (common ragweed, Ambrosia elatior), soybean (Glycine max), barnyardgrass (Echinochloa crus-galli), oilseed rape (Brassica napus), pigweed, palmer (palmer pigweed, Amaranthus palmeri), waterhemp (common waterhemp, Amaranthus rudis), velvetleaf (Abutilon theophrasti), kochia (Kochia scoparia), surinam grass (Brachiaria decumbens), nightshade (eastern black nightshade, Solanum ptycanthum), wild poinsettia (Euphorbia heterophylla), windgrass (Apera spica-venti), and oat, wild (wild oat Avena fatua), were planted into a blend of loam soil and sand or a silt loam soil and treated preemergence with test chemicals formulated in a non-phytotoxic solvent mixture which included a surfactant.
(§3) At the same time, plants selected from these crop and weed species and also chickweed (common chickweed, Stellaria media), buckwheat, wild (wild buckwheat, Polygonum convolvulus), wild mustard (Sinapis arvensis), field poppy (Papaver rhoeas), field violet (Viola arvensis), geranium, cutleaf (cutleaf geranium, Geranium dissectum), Canada thistle (Cirsium arvense), and speedwell (bird's-eye speedwell, Veronica persica), were planted in pots containing Sunshine Redi-Earth® planting medium comprising spaghnum peat moss, vermiculite, starter nutrients and dolomitic limestone and treated with postemergence applications of test chemicals formulated in the same manner. Plants ranged in height from 2 to 18 cm (1- to 4-leaf stage) for postemergence treatments. Treated plants and controls were maintained in a greenhouse for 13 to 15 d, after which time all species were compared to controls and visually evaluated. Plant response ratings, summarized in Table C, are based on a scale of 0 to 100 where 0 is no effect and 100 is complete control. A dash (-) response means no test result.

[8] = system: oat, wild (wild oat Avena fatua); test: Test C postemergence, plant response rating; settings: Avena fatua, post-emergence
Excerpt: as §2, §3

[9] = system: crabgrass, large (large crabgrass, Digitaria sanguinalis); test: Test C postemergence, plant response rating; settings: Digitaria sanguinalis, post-emergence
Excerpt: as §2, §3

[10] = system: lambsquarters (Chenopodium album); test: Test C postemergence, plant response rating; settings: Chenopodium album, post-emergence
Excerpt: as §2, §3

[11] = system: wheat (winter wheat, Triticum aestivum); test: Test C postemergence, plant response rating; settings: Triticum aestivum, post-emergence
Excerpt: as §2, §3

[12] = system: blackgrass (Alopecurus myosuroides); test: Test C postemergence, plant response rating; settings: Alopecurus myosuroides, post-emergence
Excerpt: as §2, §3

[13] = system: nutsedge, yellow (yellow nutsedge, Cyperus esculentus); test: Test C postemergence, plant response rating; settings: Cyperus, post-emergence
Excerpt: as §2, §3

[14] = system: chickweed (common chickweed, Stellaria media); test: Test C postemergence, plant response rating; settings: Stellaria media, post-emergence
Excerpt: as §2, §3

[15] = system: ryegrass, Italian (Italian ryegrass, Lolium multiflorum); test: Test C postemergence, plant response rating; settings: Lolium multiflorum, post-emergence
Excerpt: as §2, §3

[16] = system: soybean (Glycine max); test: Test C postemergence, plant response rating; settings: Glycine max, post-emergence
Excerpt: as §2, §3

[17] = system: galium (catchweed bedstraw, Galium aparine); test: Test C postemergence, plant response rating; settings: Galium, post-emergence
Excerpt: as §2, §3

[18] = system: foxtail, giant (giant foxtail, Setaria faberii); test: Test C postemergence, plant response rating; settings: Setaria faberi, post-emergence
Excerpt: as §2, §3

[19] = 62 g ai/ha, scale 0 to 100 (0 no effect, 100 complete control)
[20] = 125 g ai/ha, scale 0 to 100 (0 no effect, 100 complete control)

Question: Which results are given for `CC(CC(F)(F)F)OC(=O)c1c(Br)cccc1Oc1ncc(Cl)cn1` (stereo not drawn) [Compound 16, 3,3,3-trifluoro-1-methylpropyl 2-bromo-6-[(5-chloro-2-pyrimidinyl)oxy]benzoate]?
Answer: pest or weed control at 125 g/ha ([1]; 125 g ai/ha): 0%; pest or weed control at 500 g/ha ([1]; 500 g ai/ha): 0%; pest or weed control at 125 g/ha ([2]; 125 g ai/ha): 90%; pest or weed control at 500 g/ha ([2]; 500 g ai/ha): 80%; pest or weed control at 125 g/ha ([3]; 125 g ai/ha): 90%; pest or weed control at 500 g/ha ([3]; 500 g ai/ha): 100%; pest or weed control at 125 g/ha ([4]; 125 g ai/ha): 0%; pest or weed control at 500 g/ha ([4]; 500 g ai/ha): 20%; pest or weed control at 125 g/ha ([5]; 125 g ai/ha): 90%; pest or weed control at 500 g/ha ([5]; 500 g ai/ha): 100%; pest or weed control at 125 g/ha ([6]; 125 g ai/ha): 30%; pest or weed control at 500 g/ha ([6]; 500 g ai/ha): 100%; Corn plant response rating (crop injury, 0 = no effect, 100 = complete kill) at 16 g/ha ([7]; 16 g ai/ha, scale 0 to 100): 5%; Corn plant response rating (crop injury, 0 = no effect, 100 = complete kill) at 31 g/ha ([7]; 31 g ai/ha, scale 0 to 100): 15%; plant injury at 62 g/ha [7, 19]: 15%; plant injury at 125 g/ha [7, 20]: 20%; pest or weed control at 16 g/ha ([8]; 16 g ai/ha, scale 0 to 100): 0%; pest or weed control at 31 g/ha ([8]; 31 g ai/ha, scale 0 to 100): 5%; pest or weed control at 62 g/ha [8, 19]: 5%; pest or weed control at 125 g/ha [8, 20]: 10%; pest or weed control at 16 g/ha ([9]; 16 g ai/ha, scale 0 to 100): 10%; pest or weed control at 31 g/ha ([9]; 31 g ai/ha, scale 0 to 100): 15%; pest or weed control at 62 g/ha [9, 19]: 25%; pest or weed control at 125 g/ha [9, 20]: 25%; pest or weed control at 16 g/ha ([10]; 16 g ai/ha, scale 0 to 100): 40%; pest or weed control at 31 g/ha ([10]; 31 g ai/ha, scale 0 to 100): 50%; pest or weed control at 62 g/ha [10, 19]: 40%; pest or weed control at 125 g/ha [10, 20]: 60%; plant injury at 16 g/ha ([11]; 16 g ai/ha, scale 0 to 100): 0%; plant injury at 31 g/ha ([11]; 31 g ai/ha, scale 0 to 100): 0%; plant injury at 62 g/ha ([11]; 62 g ai/ha, scale 0 to 100 (0 no effect, 100 complete control), read-out: Wheat plant response rating): 0%; plant injury at 125 g/ha [11, 20]: 0%; pest or weed control at 16 g/ha ([12]; 16 g ai/ha, scale 0 to 100): 0%; pest or weed control at 31 g/ha ([12]; 31 g ai/ha, scale 0 to 100): 0%; pest or weed control at 62 g/ha [12, 19]: 0%; pest or weed control at 125 g/ha [12, 20]: 5%; pest or weed control at 16 g/ha ([13]; 16 g ai/ha, scale 0 to 100): 0%; pest or weed control at 31 g/ha ([13]; 31 g ai/ha, scale 0 to 100): 5%; pest or weed control at 62 g/ha [13, 19]: 10%; pest or weed control at 125 g/ha [13, 20]: 20%; pest or weed control at 16 g/ha ([14]; 16 g ai/ha, scale 0 to 100): 20%; pest or weed control at 31 g/ha ([14]; 31 g ai/ha, scale 0 to 100): 20%; pest or weed control at 62 g/ha [14, 19]: 50%; pest or weed control at 125 g/ha [14, 20]: 80%; pest or weed control at 16 g/ha ([15]; 16 g ai/ha, scale 0 to 100): 0%; pest or weed control at 31 g/ha ([15]; 31 g ai/ha, scale 0 to 100): 0%; pest or weed control at 62 g/ha [15, 19]: 0%; pest or weed control at 125 g/ha [15, 20]: 5%; plant injury at 16 g/ha ([16]; 16 g ai/ha, scale 0 to 100): 15%; plant injury at 31 g/ha ([16]; 31 g ai/ha, scale 0 to 100): 35%; plant injury at 62 g/ha [16, 19]: 50%; plant injury at 125 g/ha [16, 20]: 50%; pest or weed control at 16 g/ha ([17]; 16 g ai/ha, scale 0 to 100): 45%; pest or weed control at 31 g/ha ([17]; 31 g ai/ha, scale 0 to 100): 50%; pest or weed control at 62 g/ha [17, 19]: 55%; pest or weed control at 125 g/ha [17, 20]: 55%; pest or weed control at 16 g/ha ([18]; 16 g ai/ha, scale 0 to 100): 10%; pest or weed control at 31 g/ha ([18]; 31 g ai/ha, scale 0 to 100): 20%; pest or weed control at 62 g/ha [18, 19]: 30%; pest or weed control at 125 g/ha [18, 20]: 35%
